Experimental data reported in US6844306B2, “Water-soluble, chlorhexidine-containing compositions and use thereof” (Degussa AG, priority 2000, dated 2005).

Legend:
[1] = From the text: Ion concentrations exceeding the maximum values established by the solubility product should lead to precipitations.
[2] = cited from earlier work

SMILES | bromide ions in saturated chlorhexidine bromide solution [1] [mg per liter] | chlorhexidine dication in saturated chlorhexidine bromide solution [1] | water solubility [2]
Br.Br.N=C(NCCCCCCNC(=N)NC(=N)Nc1ccc(Cl)cc1)NC(=N)Nc1ccc(Cl)cc1 [chlorhexidine dibromide] | ~450 | approximately 1400 mg per liter | 
CCCCCCCCCCCCCCCC[N+](C)(C)C.[Br-] [cetrimide, N-cetyl-N,N,N-trimethylammonium bromide] |  |  | approx. 67 g/l
